Assay results from ChEMBL document CHEMBL1201862, “PubChem BioAssay data set” (2004).
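1) Cells in 96-well plates. 2) Compound, 48 h, 5 concentrations. 3) Linear interpolation between surrounding doses. 4) Unreached endpoint = highest concentration. GI50: concentration for 50% inhibition of growth.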 Activity calls are given as the source filed them. Cut-off read from the data, not from the text of the source: active = GI50 up to about 1.1 µM and inactive = higher.

Columns and labels:
Assay in all cases: NCI anticancer screen, dose series, 48 h
A549 = tested on: A549
ACHN = tested on: ACHN
CAKI-1 = tested on: CAKI-1
CCRF-CEM = tested on: CCRF-CEM
DU-145 = tested on: DU-145
HL-60 = tested on: HL-60
IGROV-1 = tested on: IGROV-1
M14 = tested on: M14
MDA-MB-435 = tested on: MDA-MB-435
NCI-H226 = tested on: NCI-H226
NCI-H460 = tested on: NCI-H460
NCI/ADR-RES = tested on: NCI/ADR-RES
OVCAR-8 = tested on: OVCAR-8
SF-295 = tested on: SF-295
SK-MEL-5 = tested on: SK-MEL-5
SN12C = tested on: SN12C
SNB-75 = tested on: SNB-75
SW-620 = tested on: SW-620
TK-10 = tested on: TK-10
UACC-257 = tested on: UACC-257

| Compound | GI50 (A549) | GI50 (ACHN) | GI50 (CAKI-1) | GI50 (CCRF-CEM) | GI50 (DU-145) | GI50 (HL-60) | GI50 (IGROV-1) | GI50 (M14) | GI50 (MDA-MB-435) | GI50 (NCI-H226) | GI50 (NCI-H460) | GI50 (NCI/ADR-RES) | GI50 (OVCAR-8) | GI50 (SF-295) | GI50 (SK-MEL-5) | GI50 (SN12C) | GI50 (SNB-75) | GI50 (SW-620) | GI50 (TK-10) | GI50 (UACC-257) |
| --- | --- | --- | --- | --- | --- | --- | --- | --- | --- | --- | --- | --- | --- | --- | --- | --- | --- | --- | --- | --- |
| c1ccc(CC2COC(c3cccs3)=N2)cc1 (stereo not given) | 92.7 µM (inactive) | 78.5 µM (inactive) | > 100 µM (inactive) | 38.1 µM (inactive) | 42.1 µM (inactive) | 37.3 µM (inactive) | > 100 µM (inactive) | > 100 µM (inactive) | > 100 µM (inactive) | 67.9 µM (inactive) | > 86.5 µM (inactive) | 48.5 µM (inactive) | > 100 µM (inactive) | > 86.3 µM (inactive) | 57.7 µM (inactive) | > 64.4 µM (inactive) | 42.6 µM (inactive) | > 100 µM (inactive) | > 90.2 µM (inactive) | > 100 µM (inactive) |
| O=C(NCCSSCCNC(=O)/C(Cc1ccc(O)c(Br)c1)=N/O)/C(Cc1ccc(O)c(Br)c1)=N/O [PSAMMAPLIN A] | 1.44 µM (inactive) | 1.62 µM (inactive) | 1.47 µM (inactive) | 0.377 µM (active) | 1.89 µM (inactive) | 0.426 µM (active) | 1.17 µM (inactive) | 1.32 µM (inactive) | 1.51 µM (inactive) | 9.82 µM (inactive) | 0.902 µM (active) | 1.29 µM (inactive) | 1.52 µM (inactive) | 1.34 µM (inactive) | 0.927 µM (active) | 1.43 µM (inactive) | 0.889 µM (active) | 1.64 µM (inactive) | 2.92 µM (inactive) | 1.6 µM (inactive) |
| COC1=CC2C(c3cc4ccccc4n3S(=O)(=O)c3ccccc3)CC1CN2C(=O)OCc1ccccc1 (stereo not given) | 20.5 µM (inactive) | 28.6 µM (inactive) | 35.2 µM (inactive) | 29.4 µM (inactive) | 29.2 µM (inactive) | 16.4 µM (inactive) | 33.7 µM (inactive) | 19.6 µM (inactive) | 24.2 µM (inactive) | 27.4 µM (inactive) | 29.5 µM (inactive) | 35.7 µM (inactive) | 50.8 µM (inactive) | 25 µM (inactive) | 25.6 µM (inactive) | 32 µM (inactive) | 1.6 µM (inactive) | 37.6 µM (inactive) | 67.1 µM (inactive) | 34.8 µM (inactive) |
| O=C1CC(Cl)c2c(Cl)sc(Cl)c21 (stereo not given) | 3.56 µM (inactive) | 1.95 µM (inactive) | 1.76 µM (inactive) | 0.255 µM (active) | 2.47 µM (inactive) | 1.4 µM (inactive) | 1.99 µM (inactive) | 1.88 µM (inactive) | 2.36 µM (inactive) | 13.4 µM (inactive) | 13.8 µM (inactive) | 3.35 µM (inactive) | 1.8 µM (inactive) | 15.4 µM (inactive) | 13.2 µM (inactive) | 1.84 µM (inactive) | 4.56 µM (inactive) | 1.75 µM (inactive) | 2.36 µM (inactive) | 2.96 µM (inactive) |
| O=C(NCCN1CCOCC1)c1ccc2cc(C(=O)N3CC(CCl)c4ccc([N+](=O)[O-])cc43)[nH]c2c1 (stereo not given) | 5.19 µM (inactive) | 12.4 µM (inactive) | 24.2 µM (inactive) | 7.82 µM (inactive) | 17.5 µM (inactive) | 6.14 µM (inactive) | 11.5 µM (inactive) | 7.38 µM (inactive) | 15.5 µM (inactive) | 27.3 µM (inactive) | 11.4 µM (inactive) | > 100 µM (inactive) | 12.1 µM (inactive) | 3.18 µM (inactive) | 2.54 µM (inactive) | 19.2 µM (inactive) | 6.7 µM (inactive) | 20.1 µM (inactive) | 16.9 µM (inactive) | 25 µM (inactive) |
| CCOC(=O)CCC(NC(=O)c1ccc(Nc2nc3ccc(C(F)(F)F)cc3nc2-c2ccccc2)cc1)C(=O)OCC (stereo not given) | > 100 µM (inactive) | > 73.6 µM (inactive) | > 100 µM (inactive) | 25.8 µM (inactive) | > 100 µM (inactive) | > 63.4 µM (inactive) | > 100 µM (inactive) | 19.7 µM (inactive) | 83 µM (inactive) | > 57.3 µM (inactive) | 56.6 µM (inactive) | > 100 µM (inactive) | > 100 µM (inactive) | > 100 µM (inactive) | 30.4 µM (inactive) | > 100 µM (inactive) | > 100 µM (inactive) | > 100 µM (inactive) | > 100 µM (inactive) | 17.5 µM (inactive) |
| Nc1nc(Cl)cc(NCC2(CO)CC(CCc3ccccc3)C2)n1 (stereo not given) | 9.16 µM (inactive) | > 29 µM (inactive) | > 100 µM (inactive) | > 58.9 µM (inactive) | > 100 µM (inactive) | 3.44 µM (inactive) | > 100 µM (inactive) | > 100 µM (inactive) | > 100 µM (inactive) | > 100 µM (inactive) | 22.3 µM (inactive) | 4.14 µM (inactive) | 21.8 µM (inactive) | 5.9 µM (inactive) | 0.506 µM (active) | > 100 µM (inactive) | 20.3 µM (inactive) | > 100 µM (inactive) | > 70.5 µM (inactive) | 0.461 µM (active) |
| O=C1c2cccnc2S(=O)(=O)N1c1ccc([N+](=O)[O-])cc1 | > 100 µM (inactive) | > 100 µM (inactive) | > 100 µM (inactive) | 68.5 µM (inactive) | > 100 µM (inactive) | 24 µM (inactive) | > 100 µM (inactive) | > 100 µM (inactive) | > 100 µM (inactive) | > 100 µM (inactive) | > 100 µM (inactive) | > 100 µM (inactive) | > 100 µM (inactive) | > 100 µM (inactive) | > 100 µM (inactive) | > 100 µM (inactive) | > 100 µM (inactive) | > 100 µM (inactive) | > 100 µM (inactive) | > 100 µM (inactive) |
| CN1CCc2cc(N)cc3c2C1Cc1ccc2c(c1-3)OCO2 (stereo not given) | 37.2 µM (inactive) | 26.3 µM (inactive) | 41.5 µM (inactive) | 1.97 µM (inactive) | 32.8 µM (inactive) | 28.4 µM (inactive) | 20.5 µM (inactive) | 30.8 µM (inactive) | 9.59 µM (inactive) | 34 µM (inactive) | 28.9 µM (inactive) | 24.3 µM (inactive) | 21.6 µM (inactive) | 31.9 µM (inactive) | 20.4 µM (inactive) | 26.9 µM (inactive) | 31.9 µM (inactive) | 31 µM (inactive) | 45.8 µM (inactive) | 22.5 µM (inactive) |
| O=S1(=O)C(c2ccccc2)C(N2CCCCC2)C1C1CC2c3ccccc3C1c1ccccc12 (stereo not given) | 8.17 µM (inactive) | > 100 µM (inactive) | > 100 µM (inactive) | 2.45 µM (inactive) | > 100 µM (inactive) | 2.86 µM (inactive) | > 94 µM (inactive) | > 100 µM (inactive) | > 30.7 µM (inactive) | > 100 µM (inactive) | 17.6 µM (inactive) | > 28 µM (inactive) | > 100 µM (inactive) | > 100 µM (inactive) | 45.1 µM (inactive) | > 35.8 µM (inactive) | > 100 µM (inactive) | > 28.4 µM (inactive) | > 100 µM (inactive) | > 92.7 µM (inactive) |
